# *1 amine or outer side, *2 acyl side, *3 side chain or, on linkers, in order; H or OH if unused. Where a SMILES comes first, the peptide text is derived from it. Side-chain parts run from the residue outwards. The star is where a group is joined. C18 diacid = O=C(O)CCCCCCCCCCCCCCCCC(=O)*; γGlu = O=C(O)[C@H](CCC(=O)[*:2])N[*:1]; Isovaleryl = CC(C)CC(=O)*; AEEA = NCCOCCOCC(=O)O
# Biological target: T1, Human Neuropeptide Y2 Receptor (Homo sapiens, UniProt P49146)
# T1 construct: purchased CHEMICON HTS066M
# T1 sequence (P49146 1-381): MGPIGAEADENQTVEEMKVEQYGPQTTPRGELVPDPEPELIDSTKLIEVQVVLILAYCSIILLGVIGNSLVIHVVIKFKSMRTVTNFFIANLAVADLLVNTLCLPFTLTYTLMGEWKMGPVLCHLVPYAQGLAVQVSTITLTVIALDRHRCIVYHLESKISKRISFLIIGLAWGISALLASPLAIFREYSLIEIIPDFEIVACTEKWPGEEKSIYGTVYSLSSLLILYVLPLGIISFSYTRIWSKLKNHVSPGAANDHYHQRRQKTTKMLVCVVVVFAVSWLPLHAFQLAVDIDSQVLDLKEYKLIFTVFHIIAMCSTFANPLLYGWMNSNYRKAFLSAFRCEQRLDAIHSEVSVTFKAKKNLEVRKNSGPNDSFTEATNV
# Test: Radioligand binding competition assay (RLB)
# Details: Table 3; human 125I-PYY (1-36) 0.02 nM, Y2 receptor membranes; read-out: Ki
# Outline: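 Filtration format; Y2R membrane prep 0.5 μg/well; buffer 50 mM HEPES/5 mM MgCl2/1 mM CaCl2/0.2% ovalbumin pH 7.4; 2 h RT, shaking. Harvest on PEI-soaked GF/C, ice-cold HEPES/500 mM NaCl washes, scintillation count. IC50 by nonlinear fit.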
row,Compound,Ki [nM]
1,"CC(C)CC(=O)N[C@@H](C)C(=O)N1CCC[C@H]1C(=O)N[C@@H](CCC(=O)O)C(=O)N[C@@H](CCCCNC(=O)COCCOCCNC(=O)COCCOCCNC(=O)CC[C@H](NC(=O)CCCCCCCCCCCCCCCCC(=O)O)C(=O)O)C(=O)N1CCC[C@H]1C(=O)N[C@@H](CCC(=O)O)C(=O)N[C@@H](CCC(=O)O)C(=O)N[C@@H](CC(=O)O)C(=O)N[C@@H](C)C(=O)N[C@@H](CO)C(=O)N1CCC[C@H]1C(=O)N[C@@H](CCC(=O)O)C(=O)N[C@@H](CCC(=O)O)C(=O)N[C@H](C(=O)N[C@@H](CCC(N)=O)C(=O)N[C@@H](CCCNC(=N)N)C(=O)N[C@@H](Cc1ccc(O)cc1)C(=O)N[C@@H](Cc1ccc(O)cc1)C(=O)N[C@H](C(=O)N[C@@H](CO)C(=O)N[C@@H](CC(C)C)C(=O)N[C@@H](CCCNC(=N)N)C(=O)N[C@@H](Cc1c[nH]cn1)C(=O)N[C@@H](Cc1ccc(O)cc1)C(=O)N[C@@H](Cc1ccc(O)cc1)C(=O)N[C@@H](CC(N)=O)C(=O)N[C@@H](Cc1c[nH]c2ccccc12)C(=O)N[C@@H](CC(C)C)C(=O)N[C@H](C(=O)N[C@@H](CCCNC(=N)N)C(=O)N[C@@H](CCC(N)=O)C(=O)N[C@@H](CCCNC(=N)N)C(=O)N[C@@H](Cc1ccc(O)cc1)C(N)=O)[C@@H](C)O)C(C)C)[C@@H](C)O [Compound 155, N{alpha-4}-(3-methylbutanoyl)-N{epsilon-7}-[2-(2-{2-[2-(2-{2-[(4S)-4-carboxy-4-(17-carboxyheptadecanamido)butanamido]ethoxy}ethoxy)acetamido]ethoxy}ethoxy)acetamido]-[4A,7K,9E,17T,18Q,22V,28Y,30W,31L]hPYY (4-36)]",2.05
2,"CC(C)CC(=O)N[C@@H](C)C(=O)N1CCC[C@H]1C(=O)N[C@@H](CCC(=O)O)C(=O)N[C@@H](CCCCNC(=O)COCCOCCNC(=O)COCCOCCNC(=O)CC[C@H](NC(=O)CCCCCCCCCCCCCCCCC(=O)O)C(=O)O)C(=O)N1CCC[C@H]1C(=O)N[C@@H](CCC(=O)O)C(=O)N[C@@H](CCC(=O)O)C(=O)N[C@@H](CC(=O)O)C(=O)N[C@@H](C)C(=O)N[C@@H](CO)C(=O)N1CCC[C@H]1C(=O)N[C@@H](CCC(=O)O)C(=O)N[C@@H](CCC(=O)O)C(=O)N[C@@H](CC(C)C)C(=O)N[C@@H](CCC(N)=O)C(=O)N[C@@H](CCCNC(=N)N)C(=O)N[C@@H](Cc1ccc(O)cc1)C(=O)N[C@@H](Cc1ccc(O)cc1)C(=O)N[C@H](C(=O)N[C@@H](CO)C(=O)N[C@@H](CC(C)C)C(=O)N[C@@H](CCCNC(=N)N)C(=O)N[C@@H](Cc1c[nH]cn1)C(=O)N[C@@H](Cc1ccc(O)cc1)C(=O)N[C@@H](Cc1c[nH]c2ccccc12)C(=O)N[C@@H](CC(N)=O)C(=O)N[C@@H](Cc1ccc(O)cc1)C(=O)N[C@@H](CC(C)C)C(=O)N[C@H](C(=O)N[C@@H](CCCNC(=N)N)C(=O)N[C@@H](CCC(N)=O)C(=O)N[C@@H](CCCNC(=N)N)C(=O)N[C@@H](Cc1ccc(O)cc1)C(N)=O)[C@@H](C)O)C(C)C [Compound 158, N{alpha-4}-(3-methylbutanoyl)-N{epsilon-7}-[2-(2-{2-[2-(2-{2-[(4S)-4-carboxy-4-(17-carboxyheptadecanamido)butanamido]ethoxy}ethoxy)acetamido]ethoxy}ethoxy)acetamido]-[4A,7K,9E,18Q,22V,28W,30Y,31L]hPYY (4-36)] (Isovaleryl-APEK([AEEA-AEEA-γGlu-C18 diacid])PEEDASPEELQRYYVSLRHYWNYLTRQRY-NH2)",4.43

# Further lines, results first:
row,Ki [nM],Compound
1,2,"CC(C)CC(=O)N[C@@H](C)C(=O)N1CCC[C@H]1C(=O)N[C@@H](CCC(=O)O)C(=O)N[C@@H](CCCCNC(=O)COCCOCCNC(=O)COCCOCCNC(=O)CC[C@H](NC(=O)CCCCCCCCCCCCCCCCC(=O)O)C(=O)O)C(=O)N1CCC[C@H]1C(=O)N[C@@H](CCC(=O)O)C(=O)N[C@@H](C)C(=O)N[C@@H](CC(=O)O)C(=O)N[C@@H](C)C(=O)N[C@@H](CCC(=O)O)C(=O)N1CCC[C@H]1C(=O)N[C@@H](CCC(=O)O)C(=O)N[C@@H](CCC(=O)O)C(=O)N[C@@H](CC(C)C)C(=O)N[C@@H](CCC(N)=O)C(=O)N[C@@H](CCCNC(=N)N)C(=O)N[C@@H](Cc1ccc(O)cc1)C(=O)N[C@@H](Cc1ccc(O)cc1)C(=O)N[C@H](C(=O)N[C@@H](CO)C(=O)N[C@@H](CC(C)C)C(=O)N[C@@H](CCCNC(=N)N)C(=O)N[C@@H](Cc1c[nH]cn1)C(=O)N[C@@H](Cc1ccc(O)cc1)C(=O)N[C@@H](Cc1ccc(O)cc1)C(=O)N[C@@H](CC(N)=O)C(=O)N[C@@H](Cc1c[nH]c2ccccc12)C(=O)N[C@@H](CC(C)C)C(=O)N[C@H](C(=O)N[C@@H](CCCNC(=N)N)C(=O)N[C@@H](CCC(N)=O)C(=O)N[C@@H](CCCNC(=N)N)C(=O)N[C@@H](Cc1ccc(O)cc1)C(N)=O)[C@@H](C)O)[C@@H](C)O [Compound 160, N{alpha-4}-(3-methylbutanoyl)-N{epsilon-7}-[2-(2-{2-[2-(2-{2-[(4S)-4-carboxy-4-(17-carboxyheptadecanamido)butanamido]ethoxy}ethoxy)acetamido]ethoxy}ethoxy)acetamido]-[4A,7K,9E,10A,13E,18Q,22T,28Y,30W,31L]hPYY (4-36)] (Isovaleryl-APEK([AEEA-AEEA-γGlu-C18 diacid])PEADAEPEELQRYYTSLRHYYNWLTRQRY-NH2)"
2,2.49,"CC(C)CC(=O)N[C@@H](C)C(=O)N1CCC[C@H]1C(=O)N[C@@H](CCC(=O)O)C(=O)N[C@@H](CCCCNC(=O)COCCOCCNC(=O)COCCOCCNC(=O)CC[C@H](NC(=O)CCCCCCCCCCCCCCCCC(=O)O)C(=O)O)C(=O)N1CCC[C@H]1C(=O)N[C@@H](CCC(=O)O)C(=O)N[C@@H](CCC(=O)O)C(=O)N[C@@H](CC(=O)O)C(=O)N[C@@H](C)C(=O)N[C@@H](CO)C(=O)N1CCC[C@H]1C(=O)N[C@@H](CCC(=O)O)C(=O)N[C@@H](CCC(=O)O)C(=O)N[C@@H](CC(C)C)C(=O)N[C@@H](CCC(N)=O)C(=O)N[C@@H](CCCNC(=N)N)C(=O)N[C@@H](Cc1ccc(O)cc1)C(=O)N[C@@H](CCC(N)=O)C(=O)N[C@H](C(=O)N[C@@H](CO)C(=O)N[C@@H](CC(C)C)C(=O)N[C@@H](CCCNC(=N)N)C(=O)N[C@@H](Cc1c[nH]cn1)C(=O)N[C@@H](Cc1ccc(O)cc1)C(=O)N[C@@H](Cc1ccc(O)cc1)C(=O)N[C@@H](CC(N)=O)C(=O)N[C@@H](Cc1c[nH]c2ccccc12)C(=O)N[C@@H](CC(C)C)C(=O)N[C@H](C(=O)N[C@@H](CCCNC(=N)N)C(=O)N[C@@H](CCC(N)=O)C(=O)N[C@@H](CCCNC(=N)N)C(=O)N[C@@H](Cc1ccc(O)cc1)C(N)=O)[C@@H](C)O)C(C)C [Compound 165, N{alpha-4}-(3-methylbutanoyl)-N{epsilon-7}-[2-(2-{2-[2-(2-{2-[(4S)-4-carboxy-4-(17-carboxyheptadecanamido)butanamido]ethoxy}ethoxy)acetamido]ethoxy}ethoxy)acetamido]-[4A,7K,9E,18Q,21Q,22V,28Y,30W,31L]hPYY (4-36)]"
3,0.66,"CC(C)CC(=O)N[C@@H](C)C(=O)N1CCC[C@H]1C(=O)N[C@@H](CCC(=O)O)C(=O)N[C@@H](CCCCNC(=O)COCCOCCNC(=O)COCCOCCNC(=O)CC[C@H](NC(=O)CCCCCCCCCCCCCCCCC(=O)O)C(=O)O)C(=O)N1CCC[C@H]1C(=O)N1CCC[C@H]1C(=O)N[C@@H](C)C(=O)N[C@@H](CC(=O)O)C(=O)N[C@@H](C)C(=O)N[C@@H](CO)C(=O)N1CCC[C@H]1C(=O)N[C@@H](CCC(=O)O)C(=O)N[C@@H](CCC(=O)O)C(=O)N[C@@H](CC(C)C)C(=O)N[C@@H](CCC(N)=O)C(=O)N[C@@H](CCCNC(=N)N)C(=O)N[C@@H](Cc1ccc(O)cc1)C(=O)N[C@@H](Cc1ccc(O)cc1)C(=O)N[C@H](C(=O)N[C@@H](CCC(=O)O)C(=O)N[C@@H](CC(C)C)C(=O)N[C@@H](CCCNC(=N)N)C(=O)N[C@@H](Cc1c[nH]cn1)C(=O)N[C@@H](Cc1ccc(O)cc1)C(=O)N[C@@H](Cc1ccc(O)cc1)C(=O)N[C@@H](CC(N)=O)C(=O)N[C@@H](Cc1c[nH]c2ccccc12)C(=O)N[C@@H](CC(C)C)C(=O)N[C@H](C(=O)N[C@@H](CCCNC(=N)N)C(=O)N[C@@H](CCC(N)=O)C(=O)N[C@@H](CCCNC(=N)N)C(=O)N[C@@H](Cc1ccc(O)cc1)C(N)=O)[C@@H](C)O)C(C)C [Compound 166, N{alpha-4}-(3-methylbutanoyl)-N{epsilon-7}-[2-(2-{2-[2-(2-{2-[(4S)-4-carboxy-4-(17-carboxyheptadecanamido)butanamido]ethoxy}ethoxy)acetamido]ethoxy}ethoxy)acetamido]-[4A,7K,9P,10A,18Q,22V,23E,28Y,30W,31L]hPYY (4-36)]"

# Reference: patent US12559529B2, “NPY2 receptor agonists” (Boehringer Ingelheim International GmbH, priority 2019, dated 2026)
